Experiments:
[1] = test system: bovine aortic endothelial cells (BAE); assay: Fibrinogen-mediated adhesion of 51Cr-labelled THP-1 cells to bovine aortic endothelial cells; assay type: cell-based; settings: 500 μg/ml fibrinogen
Experimental: Cell adhesion binding assays described above were performed on bovine aortic endothelial cells (BAE) to determine if fibrinogen could mediate the binding of ^51Cr-labelled THP-1 cells to endothelial cells from a different source. Cell cultures were prepared from bovine aorta following procedures known to one skilled in the art. THP-1 cells were either left untreated or treated with 500 μg/ml fibrinogen over a 60 minute time course. At selected time points, the cells were harvested as described in Example 3B1) and the number of attached THP-1 cells were determined as previously described. […] However, in the presence of fibrinogen, approximately 20,000 cells bound to BAE cells after a 40 minute maintenance period. This maximum binding dropped off at 60 minutes to approximately 15,000 attached cells. Binding of THP-1 cells to HUVEC was done in parallel as a control for the experiment; the non-saturable binding of THP-1 cells in the presence of fibrinogen was maximal at 60 minutes with approximately 25,000 cells attached. Thus, fibrinogen mediates the binding of THP-1 cells not only to human endothelial cells but also to bovine-derived endothelial cells.

[2] = test system: TNF or LPS-stimulated HUVEC; assay: 125I-labelled fibrinogen binding to TNF- or LPS-stimulated HUVEC; set-up: species or system human; settings: TNF 5 ng/ml or LPS 1.0 μg/ml, 4 hours at 37° C.
Experimental: To determine the effect that known stimulators of HUVEC have on the binding characteristics of fibrinogen to HUVEC, dose-response experiments were performed as described in Example 3A2) on untreated HUVEC and TNF or lipopolysaccharide (LPS, Genzyme))-stimulated HUVEC. TNF and LPS were separately admixed at the respective concentrations of 5 nanograms (ng)/ml and 1.0 μg/ml to monolayers of HUVEC and maintained at 37° C. for 4 hours prior to the admixture of the labelled fibrinogen ranging in concentration from 0.01 μM up to 0.36 μM.

[3] = test system: HUVEC; assay: Fibrinogen-mediated adhesion of 51Cr-labelled THP-1 cells to HUVEC; assay type: cell-based, human
Experimental: For these assays, HUVEC were plated in the medium described in Example 2A at a density of approximately 1-5×10^4 cells/well into flat-bottom microtiter wells of a 96 well tissue-culture treated plate. The cells were then washed in serum-free RPMI 1640 and further maintained with ^51-Chromium-labelled (^51Cr) THP-1 cell suspensions previously exposed to different concentrations of unlabelled fibrinogen or left untreated. To label THP-1 cells, serum-free suspensions of the cells at a concentration of 1×10^7 cells/ml were labelled with 0.5 mCi ^51Cr (Na2CrO4 having a specific activity of 487.4 mCi/mg, NEN Du Pont de Nemours) for 2 hours at 37° C. with incorporation of an average of 12 to 20 cpm/THP-1 cell. The labelled cells were then washed twice at room temperature with serum-free RPMI 1640 and resuspended in the same medium at a concentration of 5 ×10^5 cells/ml. The labelled cells were used in the assays within 2 hours from the labelling procedure. For the assays, the cells were pre-stimulated with 1 μM N-FMLP in the presence of 1 mM CaCl2 and […] PPack. The resultant N-FMLP-stimulated THP-1 cell suspensions were then separately admixed with the following: 1) Medium without any admixed fibrinogen as a control; 2) Fibrinogen at 1.2 mg/ml and at 2.5 mg/ml concentrations; and 3) Normal human plasma (NHP) diluted 1:2 and 1:50. Purified fibrinogen was prepared as described in Example 1. Fibrinogen was present in undiluted normal human plasma at the concentration of approximately 1-3 mg/ml. The resultant admixtures were maintained for 20 minutes at 22° C. to allow for the binding of fibrinogen, either purified or present in NHP, to the Mac-1 receptor on the surface of the THP-1 cells.
The resultant fibrinogen-bound THP-1 cells were then admixed to the washed immobilized HUVEC described above to allow for the binding of a non-Mac-1 receptor binding site on fibrinogen to the RGD-independent fibrinogen receptor on the surface of HUVEC, thereby resulting in the binding of THP-1 cells to HUVEC via a fibrinogen bridge. The admixtures were maintained at 37° C. to allow for adhesion. At selected time intervals between 1 to 60 minutes, the HUVEC monolayers were gently washed five times with serum-free RPMI 1640 to remove nonadherent or loosely adherent THP-1 cells to which fibrinogen was initially immobilized. The adherent cells were then solubilized in 10% SDS and the cell lysate was quantitated in a beta scintillation counter. Spontaneous ^51Cr release from THP-1 cells was always less than 2% during the adhesion assay. The number of specifically attached THP-1 cells was determined by dividing the cpm harvested by the cpm/cell.
To determine the effects that temperature has on the ability of fibrinogen to mediate the binding of ^51Cr-labelled THP-1 cells to monolayers of HUVEC, cell adhesion assays as described in Example 3B1) were performed at 22° C. and at 37° C. over the course of one hour. The assays were performed in an identical manner as described above with the exception that 500 μg/ml of fibrinogen was used instead of […]. The maximum binding of THP-1 cells to HUVEC at 22° C. was 7500 cells after 40 minutes. At 60 minutes, the binding decreased to 5000 cells. The data is significant in comparison to the approximately 2000 THP-1 cells attached in the absence of fibrinogen. However, at 37° C., approximately 20,000 THP-1 cells attached to HUVEC after 40 minutes against a background binding of approximately 5000 cells in the absence of fibrinogen. The binding of ^51Cr-labelled THP-1 cells to HUVEC, thus, is maximized at the physiologic temperature of 37° C. with physiologic concentrations of fibrinogen.

## fibrinogen: fibrinogen isolated from fresh plasma by cold ethanol fractionation, fibronectin-free
[1]; 40 minutes
  THP-1 cells bound to BAE cells: approximately 20,000 cells
[1]; 60 minutes
  THP-1 cells bound to BAE cells: approximately 15,000 cells
[2]
  labelled fibrinogen molecules bound per cell in comparison to unstimulated cells: doubled
[3]; 500 μg/ml fibrinogen, 22° C., 40 minutes
  THP-1 cells bound to HUVEC, maximum: 7500 cells
[3]; 500 μg/ml fibrinogen, 22° C., 60 minutes
  THP-1 cells bound to HUVEC: 5000 cells
[3]; 500 μg/ml fibrinogen, 37° C., 40 minutes
  THP-1 cells attached to HUVEC: approximately 20,000 cells
[3]; 500 μg/ml fibrinogen, 60 minutes, non-saturable
  THP-1 cells attached to HUVEC (parallel control), maximal: approximately 25,000 cells
[3]; 1.2 mg/ml fibrinogen, 37° C., 60 minute time course
  THP-1 cells attached to HUVEC, maximum: 10,000 cells
[3]; 2.5 mg/ml fibrinogen, 60 minutes, not saturated
  THP-1 cells attached to HUVEC: approximately 18,000 cells

Source: patent US6737058B2, “Methods for inhibiting endothelial cell and fibrinogen mediated inflammation using fibrinogen specific antibodies” (The Scripps Research Institute, priority 1992, dated 2004)
